Results as given in patent publication US20170327598A1, “SINGLE DOMAIN ANTIBODIES DIRECTED AGAINST INTRACELLULAR ANTIGENS” (SINGH MOLECULAR MEDICINE, LLC, priority 2014, published 2017).
“And” between values parts separate entries of the source, which are not always exact repeats. Identical values can stand only once.

System: VEGF-A production in ARPE-19 cells
Assay: VEGF-A ELISA in ARPE-19 retinal cells, Experiment 2;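 note: confluent ARPE-19 cells in 96-well plates, VEGF-A in culture supernatant quantified by ELISA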
Format: cell-based, human
Conditions: for Mean Result (pg VEGF-A per mL) / pg VEGF-A per μg protein / Adj. Result (pg VEGF-A per mL): per well; for Adj. Result (pg VEGF-A per mL): adjusted for dilution; for Result (pg VEGF-A per mL): single reads; for pg VEGF-A per mL: based on collecting 0.1 ml of supernatant; for Mean (pg VEGF-A per mL): mean of Adj. Result, Wells 1-3; for Mean (pg VEGF-A per μg protein): mean of Wells 1-3; for Mean (pg VEGF-A per μg protein) / % Control: Experiment 2; for % Control: normalized for protein

## Anti-STAT3 VHH13: anti-STAT3 single domain antibody, SEQ ID NO:3; bacterially produced form referred to as SBT-100
1 μg/well, 48 Hr
  Mean Result (pg VEGF-A per mL): 175.22 pg VEGF-A per mL and 203.89 pg VEGF-A per mL and 223.71 pg VEGF-A per mL
  pg VEGF-A per μg protein: 12.4 pg VEGF-A per μg protein and 13.6 pg VEGF-A per μg protein and 15.3 pg VEGF-A per μg protein
  Adj. Result (pg VEGF-A per mL): 876.08 pg VEGF-A per mL and 1019.44 pg VEGF-A per mL and 1118.55 pg VEGF-A per mL
  Result (pg VEGF-A per mL): 168.84 pg VEGF-A per mL and 181.59 pg VEGF-A per mL and 195.75 pg VEGF-A per mL and 212.03 pg VEGF-A per mL and 225.75 pg VEGF-A per mL and 221.67 pg VEGF-A per mL
10 μg/well, 12 Hr
  % Negative Control: 107.8%
  pg VEGF-A per mL: 15.2 pg VEGF-A per mL and 12.2 pg VEGF-A per mL and 14.3 pg VEGF-A per mL
  Mean (pg VEGF-A per mL): 139.00 pg VEGF-A per mL
  Mean (pg VEGF-A per μg protein): 2.148 pg VEGF-A per μg protein
  % Control: 113.7%
  Mean Result (pg VEGF-A per mL): 30.43 pg VEGF-A per mL and 24.41 pg VEGF-A per mL and 28.58 pg VEGF-A per mL
  pg VEGF-A per μg protein: 2.5 pg VEGF-A per μg protein and 1.9 pg VEGF-A per μg protein and 2 pg VEGF-A per μg protein
  Adj. Result (pg VEGF-A per mL): 152.14 pg VEGF-A per mL and 122.07 pg VEGF-A per mL and 142.92 pg VEGF-A per mL
  Result (pg VEGF-A per mL): 29.66 pg VEGF-A per mL and 31.2 pg VEGF-A per mL and 24.52 pg VEGF-A per mL and 24.31 pg VEGF-A per mL and 27.98 pg VEGF-A per mL and 29.18 pg VEGF-A per mL
10 μg/well, 24 Hr
  % Negative Control: 1142%
  pg VEGF-A per mL: 28 pg VEGF-A per mL and 34.8 pg VEGF-A per mL and 42.4 pg VEGF-A per mL
  Mean (pg VEGF-A per mL): 350.7 pg VEGF-A per mL
  Mean (pg VEGF-A per μg protein): 5.290 pg VEGF-A per μg protein
  % Control: 119.8%
  Mean Result (pg VEGF-A per mL): 55.95 pg VEGF-A per mL and 69.61 pg VEGF-A per mL and 84.84 pg VEGF-A per mL
  pg VEGF-A per μg protein: 4.4 pg VEGF-A per μg protein and 5.4 pg VEGF-A per μg protein and 6.1 pg VEGF-A per μg protein
  Adj. Result (pg VEGF-A per mL): 279.74 pg VEGF-A per mL and 348.06 pg VEGF-A per mL and 424.20 pg VEGF-A per mL
  Result (pg VEGF-A per mL): 57.85 pg VEGF-A per mL and 54.04 pg VEGF-A per mL and 72.69 pg VEGF-A per mL and 66.53 pg VEGF-A per mL and 84.97 pg VEGF-A per mL and 84.71 pg VEGF-A per mL
10 μg/well, 48 Hr
  % Negative Control: 99.3%
  pg VEGF-A per mL: 83.7 pg VEGF-A per mL and 95.6 pg VEGF-A per mL and 98.3 pg VEGF-A per mL
  Mean (pg VEGF-A per mL): 925.1 pg VEGF-A per mL
  Mean (pg VEGF-A per μg protein): 13.696 pg VEGF-A per μg protein
  % Control: 104.6%
  Mean Result (pg VEGF-A per mL): 191.17 pg VEGF-A per mL and 196.56 pg VEGF-A per mL and 167.34 pg VEGF-A per mL
  pg VEGF-A per μg protein: 11.8 pg VEGF-A per μg protein and 14 pg VEGF-A per μg protein and 15.3 pg VEGF-A per μg protein
  Adj. Result (pg VEGF-A per mL): 955.85 pg VEGF-A per mL and 982.81 pg VEGF-A per mL and 836.69 pg VEGF-A per mL
  Result (pg VEGF-A per mL): 194.18 pg VEGF-A per mL and 188.16 pg VEGF-A per mL and 194.77 pg VEGF-A per mL and 198.36 pg VEGF-A per mL and 158.85 pg VEGF-A per mL and 175.83 pg VEGF-A per mL
100 μg/mL, 12 hour treatment
  VEGF-A as % of control: 20.1%
100 μg/mL, 24 hour treatment
  VEGF-A as % of control: 7.5%
100 μg/mL, 48 hours
  pg VEGF-A/m protein as % of the negative control: 11%
100 μg/well, 12 Hr
  % Negative Control: 18.5%
  pg VEGF-A per mL: 2.4 pg VEGF-A per mL and 2.3 pg VEGF-A per mL
  Mean (pg VEGF-A per mL): 23.8 pg VEGF-A per mL
  Mean (pg VEGF-A per μg protein): 0.4 pg VEGF-A per μg protein
  Mean Result (pg VEGF-A per mL): 4.86 pg VEGF-A per mL and 4.58 pg VEGF-A per mL
  pg VEGF-A per μg protein: 0.4 pg VEGF-A per μg protein
  Adj. Result (pg VEGF-A per mL): 24.27 pg VEGF-A per mL and 22.91 pg VEGF-A per mL
  Result (pg VEGF-A per mL): 5.09 pg VEGF-A per mL and 4.62 pg VEGF-A per mL and 5.3 pg VEGF-A per mL and 4.41 pg VEGF-A per mL and 4.83 pg VEGF-A per mL and 4.33 pg VEGF-A per mL
100 μg/well, 24 Hr
  % Negative Control: 6.3%
  Mean (pg VEGF-A per mL): 19.2 pg VEGF-A per mL
  Mean (pg VEGF-A per μg protein): 0.329 pg VEGF-A per μg protein
  % Control: 7.5%
  pg VEGF-A per μg protein: 0.5 pg VEGF-A per μg protein and 0.3 pg VEGF-A per μg protein
100 μg/well, 48 Hr
  % Negative Control: 3.7%
  pg VEGF-A per mL: 3.9 pg VEGF-A per mL
  Mean (pg VEGF-A per mL): 35.6 pg VEGF-A per mL
  Mean (pg VEGF-A per μg protein): 1.458 pg VEGF-A per μg protein
  % Control: 11.1%
  Mean Result (pg VEGF-A per mL): 5.85 pg VEGF-A per mL and 7.78 pg VEGF-A per mL and 7.76 pg VEGF-A per mL
  pg VEGF-A per μg protein: 1.4 pg VEGF-A per μg protein and 1.6 pg VEGF-A per μg protein
  Adj. Result (pg VEGF-A per mL): 29.23 pg VEGF-A per mL and 38.88 pg VEGF-A per mL and 38.78 pg VEGF-A per mL
  Result (pg VEGF-A per mL): 8.03 pg VEGF-A per mL and 5.86 pg VEGF-A per mL and 5.83 pg VEGF-A per mL and 7.83 pg VEGF-A per mL and 7.72 pg VEGF-A per mL and 7.49 pg VEGF-A per mL
